20 compounds from ChEMBL document CHEMBL1159138, “Antibacterial evaluation of novel N-Arylimino-1,2,3-dithiazoles and N-arylcyanothioformamides” (1996) can be followed below.

For assay [1], the system named is Enterococcus faecalis. The assay can be described thus: Antibacterial activity was determined against gram positive bacteria - Enterococcus faecalis (ATCC 29212). The format is functional.
The subject of assay [2] is Streptococcus pyogenes. The assay is described as follows: Antibacterial activity was determined against gram positive bacteria - Streptococcus pyogenes(ATCC 19165). The format is functional.
Assay [3] relates to Enterococcus faecalis. The assay is described as follows: Minimum inhibitory concentration against Enterococcus faecalis (ATCC 29212) was determined using broth dilution method. In kind it is functional.
For assay [4], the system named is Listeria monocytogenes. The assay can be described thus: Antibacterial activity was determined against gram positive bacteria - Listeria monocytogenes (CIP 82110T). The format is functional.
For assay [5], the system named is Staphylococcus aureus. The assay can be described thus: Antibacterial activity was determined against gram positive bacteria - Staphylococcus aureus(ATCC 9144). In kind it is functional.
Assay [6] concerns Listeria monocytogenes. The assay is described as follows: Minimum inhibitory concentration against Listeria monocytogenes (CIP 82110T) was determined using broth dilution method. In kind it is functional. Background: Dilution methods test growth across graded concentrations, often in twofold steps.
Assay [7] concerns Staphylococcus aureus. The assay is described as follows: Minimum inhibitory concentration against Staphylococcus aureus(ATCC 9144) was determined using broth dilution method. In kind it is functional.
The test system of assay [8] is Streptococcus pyogenes. The assay is described as follows: Minimum inhibitory concentration against Streptococcus pyogenes(ATCC 19165) was determined using broth dilution method. In kind it is functional.
In assay [9] the test system is Streptococcus pyogenes. The assay can be described thus: Antibacterial activity was determined against gram positive bacteria - Streptococcus pyogenes(ATCC 19165); Inactive. In kind it is functional, organism-based.
For assay [10], the system named is Listeria monocytogenes. The assay can be described thus: Antibacterial activity was determined against gram positive bacteria - Listeria monocytogenes (CIP 82110T); Inactive. The format is functional, organism-based.
Assay [11] has as its system Staphylococcus aureus. The assay is described as follows: Antibacterial activity was determined against gram positive bacteria - Staphylococcus aureus(ATCC 9144); Inactive. The format is functional, organism-based.
Assay [12] concerns Enterococcus faecalis. The assay is described as follows: Antibacterial activity was determined against gram positive bacteria - Enterococcus faecalis (ATCC 29212); Inactive. In kind it is functional, organism-based.

As a reminder, the MIC is the smallest concentration in the dilution series that meets the test's criterion for growth inhibition. A higher MIC goes with a need for much substance.

The structures appear in SMILES notation. Converted amounts (≈) assume the structure as drawn. The source made the active and inactive calls.

For the compound `COC(=O)c1ccccc1/N=c1\ssnc1Cl`, the Zone diameter with Enterococcus faecalis [1] worked out at 16 mm; in the assay on Streptococcus pyogenes [2], 18 mm; with Listeria monocytogenes [4] it was 17 mm; with Staphylococcus aureus [5], 18 mm. Further, the MIC against Enterococcus faecalis [3], in the assay with Listeria monocytogenes [6], against Staphylococcus aureus [7] and in the assay on Streptococcus pyogenes [8] was 32 µg/mL (≈ 112 µM) throughout.

Consider `Clc1nss/c1=N\c1ccccc1`, for which the Zone diameter was 19 mm in the assay on Enterococcus faecalis [1], 26 mm in the assay on Streptococcus pyogenes [2], 27 mm in the assay with Listeria monocytogenes [4] and 29 mm in the assay with Staphylococcus aureus [5]. Moreover, the MIC is 16 µg/mL (≈ 70 µM) in the assay with Enterococcus faecalis [3], 16 µg/mL (≈ 70 µM) in the assay on Listeria monocytogenes [6], 16 µg/mL (≈ 70 µM) against Staphylococcus aureus [7] and 32 µg/mL (≈ 140 µM) in the assay on Streptococcus pyogenes [8].

As to `Clc1nss/c1=N\c1ccc2c(c1)OCCO2`, the Zone diameter was 10 mm with Enterococcus faecalis [1], 11 mm in the assay on Streptococcus pyogenes [2], 10 mm in the assay on Listeria monocytogenes [4] and 12 mm in the assay with Staphylococcus aureus [5]. For the same compound, the MIC against Enterococcus faecalis [3], with Listeria monocytogenes [6], against Staphylococcus aureus [7] and in the assay on Streptococcus pyogenes [8] was 32 µg/mL (≈ 112 µM) in each case.

As to `COC(=O)c1cc(OC)c(OC)cc1/N=C(/S)C#N`, the Zone diameter entry with Streptococcus pyogenes [9], with Listeria monocytogenes [10], with Staphylococcus aureus [11] and in the assay on Enterococcus faecalis [12] was “inactive” each time.

Turning to `COc1cc(NC(=S)C#N)cc(OC)c1OC`, the Zone diameter entry with Streptococcus pyogenes [9], with Listeria monocytogenes [10], with Staphylococcus aureus [11] and in the assay with Enterococcus faecalis [12] was “inactive” each time.

For `N#Cc1ccccc1/N=c1\ssnc1Cl`, the Zone diameter in the assay on Enterococcus faecalis [1] is 11 mm; in the assay with Streptococcus pyogenes [2] it was 15 mm; in the assay on Listeria monocytogenes [4], 11 mm; with Staphylococcus aureus [5], 11 mm. Further, the MIC against Enterococcus faecalis [3], with Listeria monocytogenes [6], in the assay with Staphylococcus aureus [7] and with Streptococcus pyogenes [8] was 32 µg/mL (≈ 126 µM) in each case.

With `COc1ccccc1/N=C(/S)C#N`, the Zone diameter result with Streptococcus pyogenes [9], in the assay on Listeria monocytogenes [10], in the assay on Staphylococcus aureus [11] and in the assay with Enterococcus faecalis [12] was “inactive” throughout.

For the compound `COc1cc(C#N)c(/N=c2\ssnc2Cl)cc1OC`, the Zone diameter stood at 10 mm in the assay with Enterococcus faecalis [1], 13 mm with Streptococcus pyogenes [2], 10 mm in the assay with Listeria monocytogenes [4] and 10 mm in the assay with Staphylococcus aureus [5]. Further, the MIC in the assay on Enterococcus faecalis [3], against Listeria monocytogenes [6], against Staphylococcus aureus [7] and in the assay on Streptococcus pyogenes [8] was 32 µg/mL (≈ 102 µM) throughout.

In the case of `N#CC(=S)Nc1ccccc1C#N`, the Zone diameter entry in the assay with Streptococcus pyogenes [9], in the assay with Listeria monocytogenes [10], with Staphylococcus aureus [11] and in the assay with Enterococcus faecalis [12] was “inactive” in each case.

Consider `COc1cc(C#N)c(/N=C(/S)C#N)cc1OC`, for which the Zone diameter entry in the assay on Streptococcus pyogenes [9], in the assay on Listeria monocytogenes [10], with Staphylococcus aureus [11] and with Enterococcus faecalis [12] was “inactive” each time.

Take `COc1ccc(/N=c2\ssnc2Cl)cc1OC`: the Zone diameter came to 13 mm in the assay on Enterococcus faecalis [1], 16 mm with Streptococcus pyogenes [2], 12 mm with Listeria monocytogenes [4] and 13 mm in the assay with Staphylococcus aureus [5]. Besides, the MIC against Enterococcus faecalis [3], against Listeria monocytogenes [6], with Staphylococcus aureus [7] and against Streptococcus pyogenes [8] was 32 µg/mL (≈ 111 µM) throughout.

As to `COC(=O)c1cc(OC)c(OC)cc1/N=c1\ssnc1Cl`, the Zone diameter was 14 mm in the assay with Enterococcus faecalis [1], 14 mm in the assay with Streptococcus pyogenes [2], 17 mm with Listeria monocytogenes [4] and 17 mm in the assay on Staphylococcus aureus [5]. Besides, the MIC with Enterococcus faecalis [3], in the assay on Listeria monocytogenes [6], against Staphylococcus aureus [7] and with Streptococcus pyogenes [8] was 32 µg/mL (≈ 92.3 µM) throughout.

Turning to `N#CC(=S)Nc1ccc2c(c1)OCCO2`, the Zone diameter entry in the assay with Streptococcus pyogenes [9], in the assay with Listeria monocytogenes [10], in the assay with Staphylococcus aureus [11] and in the assay with Enterococcus faecalis [12] was “inactive” each time.

Regarding `COc1ccc(NC(=S)C#N)cc1`, the Zone diameter entry in the assay with Streptococcus pyogenes [9], in the assay with Listeria monocytogenes [10], in the assay with Staphylococcus aureus [11] and in the assay with Enterococcus faecalis [12] was “inactive” throughout.

As for `COc1ccccc1/N=c1\ssnc1Cl`, the Zone diameter in the assay on Enterococcus faecalis [1] came out at 17 mm; in the assay on Streptococcus pyogenes [2], 22 mm; with Listeria monocytogenes [4], 21 mm; with Staphylococcus aureus [5], 20 mm. Also, the minimum inhibitory concentration (MIC) with Enterococcus faecalis [3] is 16 µg/mL (≈ 61.8 µM); against Listeria monocytogenes [6] it was 16 µg/mL (≈ 61.8 µM); against Staphylococcus aureus [7] it was 32 µg/mL (≈ 124 µM); against Streptococcus pyogenes [8], 32 µg/mL (≈ 124 µM).

`COc1ccc(NC(=S)C#N)cc1OC`: the Zone diameter result with Streptococcus pyogenes [9], with Listeria monocytogenes [10], in the assay with Staphylococcus aureus [11] and in the assay with Enterococcus faecalis [12] was “inactive” each time.

Regarding `COc1cc(/N=c2\ssnc2Cl)cc(OC)c1OC`, the Zone diameter with Enterococcus faecalis [1] turned out to be 10 mm; in the assay on Streptococcus pyogenes [2] it was 16 mm; in the assay on Listeria monocytogenes [4], 17 mm; with Staphylococcus aureus [5], 13 mm. The MIC against Enterococcus faecalis [3], in the assay with Listeria monocytogenes [6], in the assay with Staphylococcus aureus [7] and in the assay with Streptococcus pyogenes [8] was 32 µg/mL (≈ 100 µM) each time.

Regarding `COC(=O)c1ccccc1/N=C(/S)C#N`, the Zone diameter entry in the assay with Streptococcus pyogenes [9], in the assay with Listeria monocytogenes [10], with Staphylococcus aureus [11] and in the assay on Enterococcus faecalis [12] was “inactive” in each case.

Take `N#CC(=S)Nc1ccccc1`: the Zone diameter result in the assay with Streptococcus pyogenes [9], in the assay on Listeria monocytogenes [10], with Staphylococcus aureus [11] and with Enterococcus faecalis [12] was “inactive” in each case.

As for `COc1ccc(/N=c2\ssnc2Cl)cc1`, the Zone diameter is 14 mm in the assay with Enterococcus faecalis [1], 15 mm in the assay on Streptococcus pyogenes [2], 15 mm with Listeria monocytogenes [4] and 17 mm with Staphylococcus aureus [5]. The MIC in the assay on Enterococcus faecalis [3], in the assay with Listeria monocytogenes [6], with Staphylococcus aureus [7] and with Streptococcus pyogenes [8] was 32 µg/mL (≈ 124 µM) throughout.
